How the values were obtained:
[1] = tested on: Enterobacter gergoviae ATCC 33028; experiment: Liquid broth assay (MIC and checkerboard) against Enterobacter gergoviae; format: cell-based; details: Pluralibacter gergoviae, ATCC33028, component by itself, 30° C., 24 hours, MIC = <25% growth vs control (OD600nm), read-out: minimal inhibitory concentration (MIC)
Description: (§1) Naturally derived antimicrobial systems were made, as shown below by combining the indole alkaloid and beta carboline alkaloid. Two pools were set up and each pool contained 1 organism. The strains involved were Enterobacter gergoviae ATCC 33028 of the family Pluralibacter gergoviae, a Gram-negative and Aspergillus brasiliensis ATCC 16404. FIC test range was 16 times greater than the projected MIC for each sample.
(§2) The differing behaviors of inhibitory antimicrobials in isolation and mixtures have been widely explored using the concept of the Fractional Concentration and Fractional Inhibitory Concentration (FIC). See for instance JRW Lambert and R Lambert, J. Appl. Microbiol 95, 734 (2003); T. Jadavji, CG Prober and R Cheung, Antibacterial Agents and Chemotherapy 26, 91 (1984), and WO 2004/006876. MIC is the minimum inhibitory concentration a component prevents visible growth of a microbe. The FC and FIC parameters can be defined as follows: […]
(§3) Liquid broth assays (MIC and checkerboard) were conducted to identify the minimum concentration(s) of individual and binary combinations of natural preservation materials. […] Each of the two-preservation chemical/broth mixes was then combined in a third 96 well plate at varying concentrations and then inoculated with 1-5×10^6 microorganisms and incubated at 30° C. for 24 hours, after which optical densities at OD600nm were measured.

[2] = tested on: Aspergillus brasiliensis ATCC 16404; experiment: Liquid broth assay (MIC and checkerboard) against Aspergillus brasiliensis; format: cell-based; details: ATCC16404, component by itself, 30° C., 24 hours, MIC = <25% growth vs control (OD600nm)
Description: as §1, §2, §3

CN(C)Cc1c[nH]c2ccccc12 [Gramine, 1-(1H-Indol-3-yl)-N,N-dimethylmethanamine]
MIC [1]: 6250 µg/mL | MIC [2]: 6250 µg/mL

Source: patent publication US20250151728A1, “ANTIMICROBIAL SYSTEM WITH BETA CARBOLINE ALKALOID AND INDOLE ALKALOID AND COMPOSITIONS COMPRISING THEM” (Conopco, Inc., d/b/a UNILEVER, priority 2021, published 2025)
